Assay results: US20070167465A1, “Fungicidal mixtures” (BASF AKTIENGESELLSCHAFT, priority 2004, published 2007)

Tested on: Pyrenophora teres
Experiment: activity against net blotch of barley caused by Pyrenophora teres, 1-day-protective application
Type: in vivo, Pyrenophora [syn. Drechslera] teres on barley seedlings
Conditions: individual active compound, barley seedlings, assessed after 6 days
Procedure: The active compounds, separately or jointly, were prepared as a stock solution comprising 0.25% by weight of active compound in acetone or DMSO. 1% by weight of the emulsifier Uniperol® EL (wetting agent having emulsifying and dispersant action based on ethoxylated alkylphenols) was added to this solution, and the mixture was diluted with water to the desired concentration.
Use example—activity against net blotch of barley caused by Pyrenophora teres, 1-day-protective application.
Leaves of pot-grown barley seedlings were sprayed to run-off point with an aqueous suspension having the concentration of active compound stated below. 24 hours after the spray coating had dried on, the test plants were inoculated with an aqueous spore suspension of Pyrenophora [syn. Drechslera] teres, the causative agent of net blotch. The test plants were subsequently placed in a greenhouse at temperatures of between 20 and 24° C. and at 95 to 100% relative atmospheric humidity. After 6 days, the extent of development of the disease was determined visually in % infection of the total leaf area.
The visually determined percentages of infected leaf areas were converted into efficacies in % of the untreated control:
The efficacy (E) is calculated as follows using Abbot's formula: E=(1−α/β).100 α corresponds to the fungal infection of the treated plants in % and β corresponds to the fungal infection of the untreated (control) plants in %
An efficacy of 0 means that the infection level of the treated plants corresponds to that of the untreated control plants; an efficacy of 100 means that the treated plants were not infected.
The expected efficacies of mixtures of active compounds were determined using Colby's formula (Colby, S. R. “Calculating synergistic and antagonistic responses of herbicide combinations”, Weeds, 15, 20-22, 1967) and compared with the observed efficacies.
Colby's formula: E=x+y−x·y/100 • E expected efficacy, expressed in % of the untreated control, when using the mixture of the active compounds A and B at the concentrations a and b • x efficacy, expressed in % of the untreated control, when using the active compound A at the concentration a
y efficacy, expressed in % of the untreated control, when using the active compound B at the concentration b

Compound | Efficacy in % of the untreated control (1.25 ppm in the spray liquor) | Efficacy in % of the untreated control (0.25 ppm in the spray liquor) | Efficacy in % of the untreated control (6.25 ppm in the spray liquor)
CC1CCN(c2c(-c3c(F)cc(F)cc3F)c(Cl)nc3ncnn23)CC1 [I, 5-chloro-7-(4-methylpiperidin-1-yl)-6-(2,4,6-trifluorophenyl)-[1,2,4]triazolo[1,5-a]pyrimidine] | 56 % of the untreated control | – | –
CC(C)NC(=O)N1CC(=O)N(c2cc(Cl)cc(Cl)c2)C1=O [II (iprodione), N-isopropyl-3-(3,5-dichlorophenyl)-2,4-dioxoimidazolidine-1-carboxamide] | 0 % of the untreated control | 0 % of the untreated control | 0 % of the untreated control
